In patent US20210177847A1, “Compounds for treatment of diseases related to DUX4 expression” (Facio Intellectual Property B.V., priority 2017, published 2021):
Read-outs that look alike come from different tables or passages of the source.

What was measured:
DUX4 = experiment: High-content immunocytochemistry assay of endogenous DUX4 expression in differentiating primary FSHD myotubes; format: cell-based, human; details: for EC50: Homo sapiens, Myotube, read-out: half maximal effective concentration (EC50), DUX4 repression
Text: A quantitative assay readout was developed based on script-based image analysis. Cells were stained according to example 1, also using DAPI to detect myonuclei and an antibody against myosin heavy chain (MHC) to visualize the formation of myotubes. To analyse the images, an automated script was developed, enabling the detection of nuclei, myotube borders and DUX4 signals, with the script also detecting artefacts to reduce false positive signals. The script enabled multiple validated readouts including the number of DUX4 positive nuclei and nuclei clusters, the fusion index, myotube area, myotube width and myotube skeleton length (see FIG. 2). Additionally, the total nuclei count was included as a measure of cell loss or compound toxicity. The script was validated by evaluating endogenous DUX4 expression in the primary myotubes, and results were in line with literature values, with the number of DUX4 expressing nuclei being <0.5%.
A compound library containing approximately 5000 annotated compounds was screened in the high-content assay. For this purpose, primary myoblasts were seeded in 384 well plates after which the growth medium was replaced with differentiation medium. After 3 days of differentiation, cells were treated with library compounds (in duplicate on different screening plates) for 15 h, after which they were fixed and stained with antibodies against DUX4, antibodies against myosin heavy chain (MHC), and with DAPI (4′,6-diamidino-2-phenylindole). Script-based analysis provided readouts for DUX4 expression (count of DUX4-positive nuclei or DUX4 intensity) and for potential toxicity (fusion index and nuclei count). The majority of the approximately 200 hits was confirmed in an experiment using the same assay and 5 replicates. These compounds were selected for further concentration-response profiling.
The DUX4 repression of CK1 inhibitors was assayed following the protocol of Example 2, illustrated in FIG. 4A. […] Compounds were incubated with primary FSHD cells for 15 hours, as indicated by the arrow in FIG. 4A.

CK1α = CK1α (Homo sapiens, UniProt P48729); experiment: CK1α inhibition IC50; format: biochemical; details: Table 3; read-out: CK1 a IC50
CK1δ = CK1δ (Homo sapiens, UniProt P48730); experiment: CK1δ inhibition IC50; format: biochemical; details: Table 3; read-out: CK1 d IC50
CK1ε = CK1ε (Homo sapiens, UniProt P49674); experiment: CK1ε inhibition IC50; format: biochemical; details: Table 3; read-out: CK1 e IC50
p38α = p38α (Homo sapiens, UniProt Q16539); experiment: p38α inhibition IC50; format: biochemical; details: Table 3; read-out: p38a IC50
[1] = primary FSHD cells, compounds incubated 15 hours, Table 3

Chain of p38α (Q16539 whole entry): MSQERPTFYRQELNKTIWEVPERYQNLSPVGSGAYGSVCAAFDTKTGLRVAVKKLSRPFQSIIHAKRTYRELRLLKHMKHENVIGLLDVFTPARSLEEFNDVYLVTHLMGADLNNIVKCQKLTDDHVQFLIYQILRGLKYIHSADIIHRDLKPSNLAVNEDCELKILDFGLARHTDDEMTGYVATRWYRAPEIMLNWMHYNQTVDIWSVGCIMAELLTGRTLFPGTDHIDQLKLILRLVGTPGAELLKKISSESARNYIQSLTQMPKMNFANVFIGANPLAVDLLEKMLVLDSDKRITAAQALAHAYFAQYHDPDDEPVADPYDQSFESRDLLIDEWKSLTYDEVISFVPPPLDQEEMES
Chain of CK1α (P48729 whole entry): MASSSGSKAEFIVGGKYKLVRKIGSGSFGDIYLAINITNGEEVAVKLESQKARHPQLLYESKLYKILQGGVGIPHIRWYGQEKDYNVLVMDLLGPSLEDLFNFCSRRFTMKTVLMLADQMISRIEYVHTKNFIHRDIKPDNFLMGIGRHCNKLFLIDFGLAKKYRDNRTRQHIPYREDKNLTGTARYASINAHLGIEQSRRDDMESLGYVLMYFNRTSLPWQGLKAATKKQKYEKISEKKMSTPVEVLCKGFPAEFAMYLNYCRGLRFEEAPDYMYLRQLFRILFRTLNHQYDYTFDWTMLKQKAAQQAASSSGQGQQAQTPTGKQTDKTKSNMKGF
Chain of CK1δ (P48730 whole entry): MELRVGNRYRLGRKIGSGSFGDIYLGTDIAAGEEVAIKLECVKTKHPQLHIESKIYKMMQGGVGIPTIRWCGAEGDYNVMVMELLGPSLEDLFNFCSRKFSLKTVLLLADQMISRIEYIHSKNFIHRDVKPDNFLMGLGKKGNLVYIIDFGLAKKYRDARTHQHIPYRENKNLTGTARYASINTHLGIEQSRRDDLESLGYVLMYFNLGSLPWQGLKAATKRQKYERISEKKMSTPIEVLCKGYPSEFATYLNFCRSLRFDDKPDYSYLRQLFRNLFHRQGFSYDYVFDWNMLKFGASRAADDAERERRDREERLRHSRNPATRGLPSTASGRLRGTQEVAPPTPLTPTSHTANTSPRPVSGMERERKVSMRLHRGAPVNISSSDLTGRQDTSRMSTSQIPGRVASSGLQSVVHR
Chain of CK1ε (P49674 whole entry): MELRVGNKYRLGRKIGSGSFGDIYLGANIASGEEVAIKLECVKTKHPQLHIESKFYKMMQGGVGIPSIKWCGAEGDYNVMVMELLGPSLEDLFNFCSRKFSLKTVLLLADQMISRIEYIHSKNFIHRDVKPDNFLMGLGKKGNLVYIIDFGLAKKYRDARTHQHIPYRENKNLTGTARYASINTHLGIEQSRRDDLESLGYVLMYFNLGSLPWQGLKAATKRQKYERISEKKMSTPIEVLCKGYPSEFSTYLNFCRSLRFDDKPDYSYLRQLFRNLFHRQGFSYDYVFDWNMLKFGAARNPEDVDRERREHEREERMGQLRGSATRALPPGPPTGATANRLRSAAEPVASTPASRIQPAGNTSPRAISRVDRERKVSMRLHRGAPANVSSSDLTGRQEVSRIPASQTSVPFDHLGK

SMILES | EC50 (DUX4; [1]) | IC50 (CK1α) | IC50 (p38α) | further results
CNCc1cc(-c2cn(C)nc2-c2ccc(F)cc2)ccn1 [Compound I] | – | 1760 nM | 3070 nM | EC50 (DUX4; 15 h): 3100 to 5500 nM; IC50 (CK1δ): 57.7 nM; IC50 (CK1ε): 89 nM
CN1CCN(c2ccc3nc(-c4ccc(F)cc4)c(-c4ccncc4)n3n2)CC1 [Compound B] | 2000 nM | – | – | –
CC1(C)CN(c2ccc3nc(-c4ccc(F)cc4)c(-c4ccncc4)n3n2)CCN1 [Compound A] | 40 to 50 nM | – | – | –
COc1cc(OC)c2c(=O)[nH]c(-c3cc(C)c(OCCO)c(C)c3)nc2c1 [RVX-208, reference compound] | – | – | – | effect on DUX4 expression (DUX4; irrespective of treatment time (15 h or 72 h), not shown): did not show any effect on DUX4 expression
Cn1cc(-c2ccnc3c2C(=O)N(C2CCOCC2)C3)c(-c2ccc(F)cc2)n1 [Compound F] | 1500 to 2600 nM | – | – | –
CNc1nccc(-c2c(-c3ccc(F)cc3)ncn2C2CCN(Cc3ccon3)CC2)n1 [Compound C] | 1100 to 1400 nM | – | – | –
Fc1cccc(-n2cnc3c(NCc4nc5ccc(F)c(F)c5[nH]4)nc(N4CCOCC4)nc32)c1 [SR-3029, reference compound] | – | 1000 nM | 1000 nM | EC50 (DUX4; 15 h): 50 to 120 nM
CN1Cc2nccc(-c3cn(C)nc3-c3ccc(F)cc3)c2C1=O [Compound E] | – | – | – | EC50 (DUX4; 15 h): 1900 to 3100 nM

Now from value to compound, other results behind:

EC50 (DUX4; [1]) | SMILES | IC50 (CK1α) | IC50 (p38α) | further results
430 nM | Nc1nccc(-c2c(-c3ccc(F)cc3)ncn2C2CCCCC2)n1 [PF-670462, reference compound] | – | – | –
710 nM | Fc1ccc(-c2nc(-c3c(F)cccc3F)[nH]c2-c2ccncc2)cc1 [Compound O] | – | – | –
1700 to 4500 nM | COCCN1Cc2nccc(-c3cn(C)nc3-c3ccc(F)cc3)c2C1=O [Compound G] | 2590 nM | 712 nM | IC50 (CK1δ): 41.8 nM; IC50 (CK1ε): 92.1 nM
310 nM | Nc1nccc(-c2c(-c3ccc(F)cc3)ncn2C2CCN(Cc3ccon3)CC2)n1 [PF-5006739, reference compound] | – | – | –
10 to 46 nM | Fc1ccc(-c2nc3ccc(N4CCNCC4)nn3c2-c2ccncc2)cc1 [Compound H] | 22 nM | 14.8 nM | IC50 (CK1δ): 16.5 nM; IC50 (CK1ε): 9.41 nM
